# Reference: patent publication US20230184743A1, “SCREENING METHODS TO IDENTIFY SMALL MOLECULE COMPOUNDS THAT PROMOTE OR INHIBIT THE GROWTH OF CIRCULATING TUMOR CELLS, AND USES THEREOF” (University of Southern California, priority 2020, published 2023)
# How the values were obtained:
# [1] = system: MCF7 cells, MDA-MB-231 cells, T47D cells; experiment: Senescence assay: β-galactosidase activity; type: cell-based; conditions: various concentrations
# Excerpt: (A) MCF7 cells. (B) MDA-MB-231 cells. (C) T47D cells.
# Because an arrested state in which the cell remains viable, are not stimulated to divide by serum or passage in culture, a specific cell cycle profile is illicited that differs from most damage-induced arrest processes or contact inhibition. Characteristics of senescence cells include an enlarged cell size, expression of pH-dependent β-galactosidase activity, and an altered pattern of gene expression. To determine these characteristics, CTC cells were cultured with a compound of Formula II or cx-4945 (Silmitasertib) at various concentrations and β-galactosidase activity was measured.
# [2] = system: breast cancer circulating tumor cell (CTC); experiment: Breast cancer CTC growth screen; type: cell-based, human; conditions: added at 1 uM
# Method: Using the assay system described herein CTC were contact with a panel of small molecule drugs and the effect of the drugs on cell growth, migration, proliferation and gene expression was measured. […] This was initially found in a breast cancer circulating tumor cell (CTC) growth screen.
# [3] = system: single CTCs from 4 patient-derived CTC lines (BRx07, BRx42, BRx50, and BRx68); experiment: Validation of candidate compounds: single CTC proliferation over 24 days (AUC); type: cell-based, human
# Method: (§1) Cell culture. CTC lines were previously derived from metastatic breast cancer patients. CTC lines were cultured in ultra-low attachment plates with RPMI 1640 medium, supplemented with EGF (20 ng/mL), bFGF (20 ng/mL), 1×B27 and 1× antibiotic/antimycotic, in 4% 02 and 5% CO2. Single CTCs were cultured in GravityTRAP™ ULA 96 well Plates (PerkinElmer). Wells on the edges of the plates were not used to avoid influence from evaporation. Media with fresh compounds were exchanged every 3 days by inserting pipet tips onto the platform of the wells to prevent accidentally aspirating suspended CTCs at the bottom. CTC numbers were counted manually under an inverted microscope every 6 days.
# FACS sorting. Cells were pelleted and resuspended into single cell suspension in 1% BSA in PBS buffer with 7-AAD. Live single CTCs were sorted directly into 96-well GravityTRAP™ ULA Plates using a MoFlo cell sorter (Beckman Coulter). An inverted microscope was used to manually confirm that there was 1 CTC per well, 1 hour after sorting.
# Compounds screening. Compounds were from the StemSelect library obtained from the Choi Family Therapeutic Screening Facility at the Eli and Edythe Broad CIRM Center for Regenerative Medicine and Stem Cell Research at USC. Each compound was given a code to ensure unbiased assessment and blinded to the investigators. Compound information is listed in Appendix, at Table 1 of US Provisional Application No. U.S. 62/990,445, incorporated herein by reference). In the first-round screening, compounds were used with […] concentration. Stocks of compounds (10 mM concentration in DMSO) were stored in aliquots at −80° C. All compounds were thawed and refrozen for a maximum of 2 times. In the second-round validation, fresh compounds were dissolved in DMSO (Millipore sigma), and aliquots were stored at −20° C. and used only once without refreezing. Only wells started from single cells on day 0 after sorting were used in the screening experiment. Data collection was done in batches.
# (§2) Statistical analysis. […] AUC was calculated for each well in each batch, by plotting days in the x-axis and the corresponding number of cells in the y-axis, then drawing a line to connect the number of cells from the starting count day to the next count day until the end day, and finally calculating the area under this line as the sum of areas of trapezoids. […] Statistical tests were performed using R. For absolute number of cells quantification, total number of cells at end of experiment in each well in each batch was compared between treated cells and untreated control and significance was analyzed with Student t test. For other experiments, data were analyzed with Student t test, and represent the means±SEM of at least triplicate samples or averages ±SD of independent analyses, as indicated. […]
# BRx42 = experiment: Single CTC proliferation over 24 days (AUC), BRx42 line; type: cell-based, human
# Method: as §1
# (§3) FACS sorting. […]
# as §2, with “test.” for “test. For other experiments, data were analyzed with Student t test, and represent the means±SEM of at least triplicate samples or averages ±SD of independent analyses, as indicated.”
# BRx68-GFP+ cells = experiment: RNA-seq analysis of pools of growing single cell clones; type: cell-based, human; conditions: day 6; NAC 0.3 mM, P4D8 1 μM
# Method: RNA-seq analysis. BRx68-GFP+ cells were sorted, with 1 cell per well, using the MoFlo cell sorter (Beckman Coulter). Single cells were cultured in the presence of CTC media containing either 1 μM of P1C2, P4D8, or P1G7, or 0.3 mM of NAC or a combination of 1 μM of P1C2 and 0.3 mM of NAC. Cells cultured in media containing DMSO served as a control. All cells were cultured for either 6 days or 13 days at 37° C., 5% CO2 and 4% O2, and media was changed every 3 days. For both day 6 and day 13 groups, only clones with more than 3 cells at day 6 were harvested and pooled to a maximum of 50 cells. […] Libraries were sequenced on an Illumina NextSeq500 to obtain 75 bp-long single-end reads.
# RNA-sequencing reads were trimmed for Nextera and Illumina adapter sequences using Trim Galore under default parameters. Trimmed reads were then mapped to the human genome build GRCh37 from Ensembl (ftp:/][/ftp.ensembl.org/pub/grch37/current/fasta/homo_sapiens/dna/Homo_sapiens.GRCh37.dna_sm.primary_as sembly.fa.gz) using STAR under optimized parameters for single-end sequenced data. Aligned reads were then counted via feature-Counts and piped into DESeq2 for normalization to sequencing depth and downstream analysis. […]
# single BRx68 cells = experiment: Single CTC proliferation over 24 days (AUC), BRx68 line; type: cell-based, human
# Method: as §1, §3
# as §2, with “test.” for “test. For other experiments, data were analyzed with Student t test, and represent the means±SEM of at least triplicate samples or averages ±SD of independent analyses, as indicated.”
structure (smiles),measurement,setting,value
"COc1cc(Nc2ncc3ccn(-c4cccc(CCC#N)c4)c3n2)cc(OC)c1OC [Formula II, 3-(3-(2-(3,4,5-Trimethoxy-phenylamino)-7H-pyrrolo[2,3-d]pyrimidin-7-yl)phenyl)propionitrile]",induced senescence (β-galactosidase activity) relative to CX-4945,[1],3-4 fold
same,CTC growth,[2],stopped growing
same,proliferation of single CTCs (AUC measurement),[3]; 4 different CTC lines over 24 days,inhibition of the proliferation
"N#C/C(=C\c1ccc(-c2cc(Cl)ccc2Cl)o1)C(=O)Nc1cccc2ncccc12 [P1G3, AGK2]",single cell growth,BRx42,promote single cell growth
"CCNCc1cc(C(C)(C)C)c(O)c(C(C)(C)C)c1 [P4D8, LY 231617]",lipid metabolism pathway enrichment (IPA of differentially expressed genes) compared with control,BRx68-GFP+ cells,enriched
same,single cell growth,single BRx68 cells,promote single cell growth
same,single cell growth,[3]; other lines (than BRx68),inhibit growth
